According to publication PMC11587510, “Aromatic Amino Acid Hydroxylases as Off-Targets of Histone Deacetylase Inhibitors” (ACS Chemical Neuroscience, 2024):
Entries after “also recorded” stand apart in the source; their conditions may differ. Values belong to the compound of their own block, whether it stands above or below them.

Experiments:
TPH1 = biological target: T1, TPH1 (Homo sapiens, UniProt P17752); assay: Steady-state kinetic study of TPH1 inhibition; assay type: biochemical
T1 construct: doubly truncated human TPH1 (ΔNH102-ΔCOOH402); made in house; host or cells: E. coli BL21(DE3)
Experimental: Steady-state kinetic studies were performed to explore the mode of inhibition. […] TPH1 and TH activity assays were performed as indicated above in the absence and presence of three different compound concentrations (TPH1: 0–100 μM; TH: 0–25 μM). Product formation was measured either at a fixed concentration of the cofactor BH4 (200 μM) and varying concentrations of L-Trp (0.937–60 μM) or L-Tyr (3.125–50 μM), respectively, or in the presence of varying concentrations of BH4 (TPH1:12.5–400 μM; TH: 7.4–200 μM) and a fixed concentration of amino acid substrates: 30 μM of L-Trp or 50 μM of L-Tyr, respectively. Kinetic parameters were obtained from the Michaelis–Menten model using nonlinear regression fit [drawing 3] where Vmax is the maximum enzyme velocity and Km the Michaelis–Menten constant.
Lineweaver–Burk plots were obtained by plotting the reciprocal of the rate of the enzyme reaction (1/V) versus the reciprocal substrate concentration (1/[S]) in the absence and presence of compounds.

TH [1] = conditions: proteome profiling study; cited from earlier work
PAH = conditions: proteome profiling study; cited from earlier work
TH [2] = biological target: TH (Homo sapiens, UniProt P07101); assay: Steady-state kinetic study of TH inhibition; assay type: biochemical; conditions: for TH Vmax (µmol/(min*mg)): BH4 7.4 – 200 µM / L-Tyr 50 µM
Experimental: Steady-state kinetic studies were performed to explore the mode of inhibition. […] TH: 0-25 μM). […] Kinetic parameters were obtained from the Michaelis-Menten model using nonlinear regression fit [drawing 3] where Vmax is the maximum enzyme velocity and Km the Michaelis-Menten constant. Lineweaver-Burk plots were obtained by plotting the reciprocal of the rate of the enzyme reaction (1/V) versus the reciprocal substrate concentration (1/[S]) in the absence and presence of compounds.

endogenous PAH = biological target: T2, endogenous PAH (Homo sapiens, UniProt P00439); assay: Cellular thermal shift assay (CETSA) in HepG2 cells; assay type: cell-based; conditions: 50 μM compound, 1 h, vs DMSO
T2 construct: increased melting temperatures (ΔTm) of endogenous PAH; endogenous in cells; host or cells: HepG2
T2 sequence (P00439 1-452): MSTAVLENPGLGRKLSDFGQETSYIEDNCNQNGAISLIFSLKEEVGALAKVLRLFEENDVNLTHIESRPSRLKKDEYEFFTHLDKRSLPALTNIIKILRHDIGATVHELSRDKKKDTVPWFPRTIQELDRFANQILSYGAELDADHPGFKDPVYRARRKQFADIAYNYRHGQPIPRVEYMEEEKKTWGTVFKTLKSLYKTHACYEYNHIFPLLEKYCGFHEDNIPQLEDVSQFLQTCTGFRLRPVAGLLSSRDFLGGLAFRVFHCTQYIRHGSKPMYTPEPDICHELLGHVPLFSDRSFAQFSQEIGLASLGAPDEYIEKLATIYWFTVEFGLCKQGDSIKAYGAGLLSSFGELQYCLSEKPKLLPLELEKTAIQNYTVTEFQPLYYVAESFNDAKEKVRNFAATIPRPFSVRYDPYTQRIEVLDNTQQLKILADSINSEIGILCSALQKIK
Experimental: Then, cells were washed, harvested using trypsin, and pelleted by centrifugation. The pellet was washed twice with PBS supplemented with complete EDTA-free protease inhibitor cocktail (Roche) and divided into 14 aliquots of 35 μL containing 800,000 cells. Cells were then frozen in liquid nitrogen and thawed at 25 °C three times, and each aliquot was heated to a defined temperature by applying a gradient between 39 °C and 69 °C in a thermocycler (peQSTAR, PeQlab; 16-well gradient, 54 °C ± 15 °C). After 3 min incubation, aliquots were snap frozen in liquid nitrogen and thawed at 25 °C. Cell lysates were centrifuged at 20,000 g (4 °C) for 20 min. Supernatants were mixed with 5x loading buffer, heated to 70 °C for 5 min and analyzed by Western blotting. Chemoluminescence signals were recorded with a FusionSL, Vilber Lourmat (peQlab) and quantified using FusionCapt Advance FX7 16.01c software. Calculation of ΔTm was conducted using the Boltzmann sigmoidal model in GraphPad prism 7.01.
Cell lysates used for Western blot analysis were prepared as described in the Methods section (Cellular Thermal Shift Assay). […] Chemoluminescence signals were recorded with an FusionSL, Vilber Lourmat (peQlab) and quantified using FusionCapt Advance FX7 16.01c software.

[3] = EG22 5 μM, BH4 12.5–400 μM/L-Trp 30 μM
[4] = EG22 5 μM, L-Trp 0.937–60 μM/BH4 200 μM
[5] = EG22 30 μM, BH4 12.5–400 μM/L-Trp 30 μM
[6] = EG22 30 μM, L-Trp 0.937–60 μM/BH4 200 μM
[7] = EG22 100 μM, BH4 12.5–400 μM/L-Trp 30 μM
[8] = EG22 100 μM, L-Trp 0.937–60 μM/BH4 200 μM

Sequence of TH (Homo sapiens, UniProt P07101) (P07101 1-497 isoform P07101-3): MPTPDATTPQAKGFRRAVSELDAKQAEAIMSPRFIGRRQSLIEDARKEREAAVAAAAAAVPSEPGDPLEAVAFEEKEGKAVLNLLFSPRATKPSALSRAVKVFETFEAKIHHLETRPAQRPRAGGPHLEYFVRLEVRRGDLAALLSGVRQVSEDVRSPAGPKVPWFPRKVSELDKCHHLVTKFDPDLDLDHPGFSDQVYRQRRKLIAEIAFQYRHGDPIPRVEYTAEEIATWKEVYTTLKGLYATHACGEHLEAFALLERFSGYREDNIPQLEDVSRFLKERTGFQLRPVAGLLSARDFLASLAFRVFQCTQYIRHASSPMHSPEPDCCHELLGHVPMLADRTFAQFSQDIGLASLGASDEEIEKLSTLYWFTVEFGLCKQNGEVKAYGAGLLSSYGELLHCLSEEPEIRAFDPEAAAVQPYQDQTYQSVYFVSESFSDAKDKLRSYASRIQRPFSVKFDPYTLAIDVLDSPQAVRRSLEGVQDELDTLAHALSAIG
T1 sequence (P17752 102-402): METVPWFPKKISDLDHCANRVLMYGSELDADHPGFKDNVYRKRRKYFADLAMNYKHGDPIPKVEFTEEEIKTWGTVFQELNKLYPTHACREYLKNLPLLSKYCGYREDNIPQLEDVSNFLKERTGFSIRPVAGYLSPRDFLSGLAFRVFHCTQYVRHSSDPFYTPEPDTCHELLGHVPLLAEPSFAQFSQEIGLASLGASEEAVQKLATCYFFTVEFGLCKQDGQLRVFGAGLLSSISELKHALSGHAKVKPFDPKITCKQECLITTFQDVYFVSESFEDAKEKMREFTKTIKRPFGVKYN

Compound: O=C(NO)c1ccc(Cl)c(C(=O)Nc2ccc(Cl)cc2)c1 [EG22, 4-Chloro-3-(4-chlorophenylcarbamoyl)-N-hydroxybenzamide]
mode of TPH1 inhibition, varying BH4 and fixed L-Trp (TPH1; EG22 0–100 μM): competitive inhibition; also recorded: mainly competitive
mode of TPH1 inhibition, varying L-Trp and fixed BH4 (TPH1; EG22 0–100 μM): apparent mixed/uncompetitive inhibition; also recorded: mixed noncompetitive/uncompetitive
Km (TPH1; [3]): 22.3 ± 6.8 µM
TPH1 Vmax (μmol/(min·mg)) (TPH1; [3]): 3.4 ± 0.2 µmol/min/mg
Km (TPH1; [4]): 11.7 ± 1.1 µM
TPH1 Vmax (μmol/(min·mg)) (TPH1; [4]): 4.4 ± 0.2 µmol/min/mg
Km (TPH1; [5]): 53.8 ± 11.2 µM
TPH1 Vmax (μmol/(min·mg)) (TPH1; [5]): 3.0 ± 0.2 µmol/min/mg
Km (TPH1; [6]): 7.5 ± 1.3 µM
TPH1 Vmax (μmol/(min·mg)) (TPH1; [6]): 3.0 ± 0.2 µmol/min/mg
Km (TPH1; [7]): 76.9 ± 12.5 µM
TPH1 Vmax (μmol/(min·mg)) (TPH1; [7]): 2.8 ± 0.2 µmol/min/mg
Km (TPH1; [8]): 5.5 ± 0.8 µM
TPH1 Vmax (μmol/(min·mg)) (TPH1; [8]): 2.4 ± 0.1 µmol/min/mg

mode of TH inhibition versus the amino acid substrate (TH [2]; panobinostat): mixed noncompetitive/uncompetitive
TH Vmax (µmol/(min*mg)) (TH [2]; panobinostat 2.5 µM): 1.0 ± 0.1 µmol/min/mg
TH Vmax (µmol/(min*mg)) (TH [2]; panobinostat 10 µM): 0.32 ± 0.033 µmol/min/mg
TH Vmax (µmol/(min*mg)) (TH [2]; panobinostat 25 µM): 0.23 ± 0.029 µmol/min/mg
ΔTm at 50 µM (endogenous PAH): 3.7 °C
Compound: Cc1[nH]c2ccccc2c1CCNCc1ccc(/C=C/C(=O)NO)cc1 [panobinostat, reference compound]
IC50 (TH [1]): 3.3 µM
IC50 (PAH): 0.2 µM
mode of TH inhibition toward BH4 (TH [2]; panobinostat 0–25 μM): mixed competitive/noncompetitive inhibition; also recorded: mainly competitive
